Experimental data from patent EP0383170A2, “Methotrexate linked to polymers, process for their preparation, and use” (HOECHST AKTIENGESELLSCHAFT, priority 1989, dated 1990).

Legend:
[1] = system: L1210 Leukämie; assay: In vivo efficacy on L1210 leukaemia in mice (median survival time, T/C); conditions: for optimale Dosis: dose giving the greatest antitumoral effect
Method: Aszites Flüssigkeit wird 7 Tage nach der Tumor-Implantation unter sterilen Bedingungen aus DBA2 Mäusen entnommen (weiblich, 18 bis 20 g). Die Aszites Flüssigkeit wird dreimal mit PBS (phosphate buffered saline) gewaschen, gezählt und anschließend in PBS verdünnt bis zu einer Endkonzentration von 10⁶ Zellen pro 0,2 ml.
10⁶ Zellen in 0,2 ml PBS werden DBA2 Mäusen (weiblich, 18 bis 20 g) intraperitoneal appliziert. Dieser Transfer wird einmal wöchentlich wiederholt.
10⁵ Zellen der Aszites Flüssigkeit in 0,2 ml PBS werden BDF1 Mäusen (weiblich, 18 bis 20 g) intraperitoneal appliziert. 6 Tiere werden für jede Substanzkonzentration sowie für die Kontrolle eingesetzt.
a) Die Tiere werden an Tag 1 und Tag 5 nach der Tumorzellenimplantation gewogen. Gewichtsverlust von mehr als 20 % an Tag 5 wird als Indikator eines toxischen Substanzeffektes verwendet.
b) Am Ende des Experiments (Tod aller Tiere oder Erreichen von Tag 60) wird die mediane Überlebenszeit der Behandlungsgruppen bestimmt, sofern diese 65 % überlebende Tiere am Tag 5 enthielten. Die Ermittlung der medianen Überlebenszeit erfolgt entsprechend der Formel: [formula]
In dieser Formel bedeutet X den frühesten Tag, an dem die Zahl der überlebenden Tiere N/2 und Y den frühesten Tag, an dem die Zahl der überlebenden Tiere (N/2)-1 ist. In dem Fall, daß N eine ungerade Zahl ist, entspricht die mediane Überlebenszeit dem Zeitpunkt X.
Die mediane Überlebenszeit wird ausschließlich für im Verlauf des Experiments sterbende Tiere bestimmt. Geheilte Tiere (long time survivors, LTS) werden von der Bestimmung der medianen Überlebenszeit ausgeschlossen und getrennt aufgeführt.
Aus der medianen Überlebenszeit der behandelten Gruppen (MSTTumor) und Kontrollgruppen (MSTControl) wird der antitumorale Effekt-Tumor/control (T/C) entsprechend der Formel [formula] bestimmt. T/C Werte von mehr als 125 % werden als Indikator einer signifikanten antitumoralen Wirksamkeit der Testverbindung angesehen. Die Dosis, die jeweils den größten antitumoralen Effekt bewirkt (optimale Dosierung) ist in Tab. 2 aufgeführt. Noch lebende Tiere an Tag 60 werden als geheilt betrachtet (LTS). Ergebnisse: s. Tabelle 2

[2] = system: L1210; assay: Proliferation test (formazan dye reduction), 72 h incubation; assay type: cell-based; conditions: L1210 cells
From the text: (§1) Proliferationstest (Methotrexat-Reduktion)
(§2) Kontrollexperimente erhalten anstelle der Testsubstanz lediglich Wachstumsmedium. […] Flow bei einer Wellenlänge von 492 nm gemessen.
(§3) Für wiederholte Untersuchungen beträgt der Variationskoeffizient weniger als 15 %. Tabelle 1

[3] = system: HT 29; assay: as above; assay type: cell-based; conditions: HT 29 cells
From the text: as §1, §2, §3

[4] = system: A 549; assay: as above; assay type: cell-based; conditions: A 549 cells
From the text: as §1, §2, §3

[5] = free methotrexate; the 330 mg/kg dose is said to lie above it; cited from earlier work
[6] = L1210, 3xip/ip/Q3D, at optimal dose

## CN(Cc1cnc2nc(N)nc(N)c2n1)c1ccc(C(=O)N[C@@H](CCC(=O)O)C(=O)O)cc1 [Methotrexat, N-[4-[[(2,4-diamino-6-pteridinyl)-methyl]methylamino]benzoyl]-glutaminsäure]
[1]; L1210, 1xip/ip, at optimal dose
  Wirkung (T/C %): 123%
[1]; L1210, 1xip/ip
  optimale Dosis: 100 mg polymerfixiertes Produkt/kg Körpergewicht
[1]; [6]
  Wirkung (T/C %): 378%
  toxisch: 1
[1]; L1210, 3xip/ip/Q3D, at optimal dose, animals alive at day 60 (LTS)
  Heilungen: 5/6
[1]; L1210, 3xip/ip/Q3D
  optimale Dosis: 80 mg polymerfixiertes Produkt/kg Körpergewicht
[1]; mice with L1210 leukaemia, single i.p. application of 60 mg/kg body weight methotrexate equivalent
  Lebensverlängerungen gegenüber unbehandelten Kontrollen: nicht wirksam
[2]
  IC₅₀: 0,01 µg/ml
[3]
  IC₅₀: 0,008 µg/ml
[4]
  IC₅₀: 0,01 µg/ml
[5]
  LD₅₀: < 330 mg/kg
